According to patent US20260374794A1, “COMPOUNDS TARGETING MUTANT OF P53” (JACOBIO PHARMACEUTICALS CO., LTD., priority 2022, published 2026):
pEC50: −log10 of the molar value. Like-named read-outs stand apart in the source and are kept apart here.

Biological target: T1, p53(Y220C) (Homo sapiens, UniProt P04637, Y220C)
T1 construct: His-p53 Y220C (94-294) protein
Assay: In vitro DNA binding assay (HTRF), His-p53 Y220C (94-294) with biotinylated p53 consensus DNA
Assay type: biochemical
Experimental: After His-p53 Y220C (94-294) protein was placed with a compound in the present of MAb Anti His-Tb cryptate (Cisbio, Cat. NO. 61HI2TLA) in a 384 well microplate (Greiner) for 15 min at 25 °C, the assay plate was transferred into 27 °C incubator and incubated for 60 min. Biotinalyted p53 consensus DNA (ID: p53-SEQUENCE 2 —F: 5′(biotin)-[…] 3′ —R: 5′ […] 3′) was added into the assay plate in the present of Streptaidin-d2 (Cisbio, Cat. NO. 610SADLF) cryptate (Final concentration: 20 mM HEPES pH=7.4, 75 mM KCl, 1 mM MgCl2, 0.1% (w/v) BSA, 1 mM DTT, 2.5 nM His-P53 Y220C (94-294) protein, 0.33 nM MAb Anti His-Tb cryptate, 2.5 nM Streptaidin-d2 cryptate, 10 nM Biotinalyted DNA) and incubated for another 60 min. Wells containing 2 μM reference compound Ref-1a served as high control, and wells containing same percentage of DMSO served as low control. Homogeneous time-resolved fluorescence (HTRF) signals were read on Tecan Spark multimode microplate reader. HTRF ratios for each individual well were calculated by equation: HTRF ratio=(Signal F665/Signal F620)*1000. The percent of activation of compounds treated wells were normalized between high control and low control (% Activation=(HTRF ratiocompound treated−HTRF ratiolow control)/(HTRF ratiohigh control−HTRF ratiolow control)*100%). Then the data were analyzed either by fitting a 4-parameter logistic model or by Excel to calculate EC50 values. And the EC50 was the concentration at 50% Activation on the curve.

[1] = HTRF, 27 °C, His-p53 Y220C (94-294) 2.5 nM, biotinylated DNA 10 nM, normalized to 2 μM Ref-1a, EC50 = concentration at 50% Activation, read-out: p53(Y220C) EC50

For `COc1cc(S(C)(=O)=O)ccc1NCC#Cc1sc2c(N[C@H]3CCN(C)C[C@H]3F)cccc2c1CC(F)(F)F` [Example 35, (3R,4S)-3-fluoro-N-(2-(3-((2-methoxy-4-(methylsulfonyl)phenyl)amino)prop-1-yn-1-yl)-3-(2,2,2-trifluoroethyl)benzo[b]thiophen-7-yl)-1-methylpiperidin-4-amine], the pEC50 [1] was 6.72.
For `COc1cc([S@](=N)(=O)C(F)F)ccc1NCC#Cc1sc2c(N[C@@H]3CCN(C)C[C@@H]3F)cccc2c1CC(F)(F)F` [Example 51, (S)-(difluoromethyl)(4-((3-(7-(((3S,4R)-3-fluoro-1-methylpiperidin-4-yl)amino)-3-(2,2,2-trifluoroethyl)benzo[b]thiophen-2-yl)prop-2-yn-1-yl)amino)-3-methoxyphenyl)(imino)-16-sulfanone], the pEC50 [1] was 6.73.
`CN1CC[C@@H](Nc2cccc3c(CC(F)(F)F)c(C#CCNc4ccc(P(C)(C)=O)cc4-c4nc(=O)o[nH]4)sc23)[C@@H](F)C1` [Example 39, 3-(5-(dimethylphosphoryl)-2-((3-(7-(((3S,4R)-3-fluoro-1-methylpiperidin-4-yl)amino)-3-(2,2,2-trifluoroethyl)benzo[b]thiophen-2-yl)prop-2-yn-1-yl)amino)phenyl)-1,2,4-oxadiazol-5(2H)-one] showed a pEC50 [1] of 6.53.
For `COc1cc(P(C)(C)=O)ccc1NCC#Cc1sc2c(N[C@H]3CCN(C)C[C@@H]3F)cccc2c1CC(F)(F)F` [Example 38, (4-((3-(7-(((3S,4S)-3-fluoro-1-methylpiperidin-4-yl)amino)-3-(2,2,2-trifluoroethyl)benzo[b]thiophen-2-yl)prop-2-yn-1-yl)amino)-3-methoxyphenyl)dimethylphosphine oxide], the pEC50 [1] was 6.43.
`COc1cc([S@@](=N)(=O)C(F)F)ccc1NCC#Cc1sc2c(N[C@@H]3CCN(C)C[C@@H]3F)cccc2c1CC(F)(F)F` [Example 52, (R)-(difluoromethyl)(4-((3-(7-(((3S,4R)-3-fluoro-1-methylpiperidin-4-yl)amino)-3-(2,2,2-trifluoroethyl)benzo[b]thiophen-2-yl)prop-2-yn-1-yl)amino)-3-methoxyphenyl)(imino)-16-sulfanone] showed a pEC50 [1] of 6.87.
For `COc1cc(P(C)(C)=O)ccc1NCC#Cc1sc2c(N[C@@H]3CCN(C)C[C@@H]3F)cccc2c1C(C)C(F)(F)F` (stereo partly drawn) [Example 18, (4-((3-(7-(((3S,4R)-3-fluoro-1-methylpiperidin-4-yl)amino)-3-(1,1,1-trifluoropropan-2-yl)benzo[b]thiophen-2-yl)prop-2-yn-1-yl)amino)-3-methoxyphenyl)dimethylphosphine oxide], the pEC50 [1] was 6.24.
`CN1CC[C@@H](Nc2cccc3c(CC(F)(F)F)c(C#C[C@@H]4Cc5cc(P(C)(C)=O)ccc5N4)sc23)[C@@H](F)C1` [Example 21, ((S)-2-((7-(((3S,4R)-3-fluoro-1-methylpiperidin-4-yl)amino)-3-(2,2,2-trifluoroethyl)benzo[b]thiophen-2-yl)ethynyl)indolin-5-yl)dimethylphosphine oxide] was tested, and the pEC50 [1] was 6.37.
`COc1cc([S@@](=N)(=O)C(C)C)ccc1NCC#Cc1sc2c(N[C@@H]3CCN(C)C[C@@H]3F)cccc2c1CC(F)(F)F` [Example 27, (S)-(4-((3-(7-(((3S,4R)-3-fluoro-1-methylpiperidin-4-yl)amino)-3-(2,2,2-trifluoroethyl)benzo[b]thiophen-2-yl)prop-2-yn-1-yl)amino)-3-methoxyphenyl)(imino)(isopropyl)-16-sulfanone] was tested, and the pEC50 [1] was 7.13.
With `COc1cc(P(C)(C)=O)ccc1NCC#Cc1sc2c(NC3CCS(=N)(=O)CC3)cccc2c1CC(F)(F)F` (centres unmarked) [Example 6, (4-((3-(7-((1-imino-1-oxidohexahydro-1l6-thiopyran-4-yl)amino)-3-(2,2,2-trifluoroethyl)benzo[b]thiophen-2-yl)prop-2-yn-1-yl)amino)-3-methoxyphenyl)dimethylphosphine oxide] the pEC50 [1] was 6.68.
`COc1cc(P(C)(C)=O)ccc1NCC#Cc1sc2c(NC3CCN(C)CC3)nccc2c1CC(F)(F)F` [Example 4, (3-methoxy-4-((3-(7-((1-methylpiperidin-4-yl)amino)-3-(2,2,2-trifluoroethyl)thieno[2,3-c]pyridin-2-yl)prop-2-yn-1-yl)amino)phenyl)dimethylphosphine oxide] showed a pEC50 [1] of 6.45.
`COc1cc(N2CC(=O)NS2(=O)=O)ccc1NCC#Cc1sc2c(N[C@@H]3CCN(C)C[C@@H]3F)cccc2c1CC(F)(F)F` [Example 5, 5-(4-((3-(7-(((3S,4R)-3-fluoro-1-methylpiperidin-4-yl)amino)-3-(2,2,2-trifluoroethyl)benzo[b]thiophen-2-yl)prop-2-yn-1-yl)amino)-3-methoxyphenyl)-1,2,5-thiadiazolidin-3-one-1,1-dioxide] gave a pEC50 [1] of 6.49.
Work on `COc1cc(P(C)(C)=O)ccc1NCC#Cc1sc2c(N[C@H]3CCN(C)C[C@H]3F)cccc2c1C(C)C(F)(F)F` (stereo partly drawn) [Example 17, (4-((3-(7-(((3R,4S)-3-fluoro-1-methylpiperidin-4-yl)amino)-3-(1,1,1-trifluoropropan-2-yl)benzo[b]thiophen-2-yl)prop-2-yn-1-yl)amino)-3-methoxyphenyl)dimethylphosphine oxide] yielded a pEC50 [1] of 6.60.
In the case of `COc1cc(P(C)(C)=O)ccc1NCC#Cc1sc2c(N[C@H]3CCCN(C)C3)cccc2c1CC(F)(F)F` [Example 29, (S)-(3-methoxy-4-((3-(7-((1-methylpiperidin-3-yl)amino)-3-(2,2,2-trifluoroethyl)benzo[b]thiophen-2-yl)prop-2-yn-1-yl)amino)phenyl)dimethylphosphine oxide], the pEC50 [1] was 6.81.
With `COc1cc(P(C)(C)=O)ccc1NCC#Cc1sc2c(N[C@H]3CN4CCC3CC4)cccc2c1CC(F)(F)F` [Example 46, (R)-(3-methoxy-4-((3-(7-(quinuclidin-3-ylamino)-3-(2,2,2-trifluoroethyl)benzo[b]thiophen-2-yl)prop-2-yn-1-yl)amino)phenyl)dimethylphosphine oxide] the pEC50 was 6.91.
Compound `COc1cc(-c2nc(=O)o[nH]2)ccc1NCC#Cc1sc2c(N[C@@H]3CCN(C)C[C@@H]3F)cccc2c1CC(F)(F)F` [Example 40, 3-(4-((3-(7-(((3S,4R)-3-fluoro-1-methylpiperidin-4-yl)amino)-3-(2,2,2-trifluoroethyl)benzo[b]thiophen-2-yl)prop-2-yn-1-yl)amino)-3-methoxyphenyl)-1,2,4-oxadiazol-5(2H)-one] has a pEC50 [1] of 6.33.
`COc1cc(P(C)(C)=O)ccc1NCC#Cc1sc2c(N[C@H]3CCN(C)C[C@H]3F)cccc2c1[C@H](O)C(F)(F)F` [Example 32, (4-((3-(7-(((3R,4S)-3-fluoro-1-methylpiperidin-4-yl)amino)-3-((S)-2,2,2-trifluoro-1-hydroxyethyl)benzo[b]thiophen-2-yl)prop-2-yn-1-yl)amino)-3-methoxyphenyl)dimethylphosphine oxide] showed a pEC50 [1] of 6.93.
Compound `COc1cc(P(C)(C)=O)ccc1NCC#Cc1sc2c(NCC3(F)CCN(C)CC3)cccc2c1CC(F)(F)F` [Example 16, (4-((3-(7-(((4-fluoro-1-methylpiperidin-4-yl)methyl)amino)-3-(2,2,2-trifluoroethyl)benzo[b]thiophen-2-yl)prop-2-yn-1-yl)amino)-3-methoxyphenyl)dimethylphosphine oxide] has a pEC50 [1] of 6.60.
With `COc1cc([S@](=N)(=O)C2CCOCC2)ccc1NCC#Cc1sc2c(N[C@@H]3CCN(C)C[C@@H]3F)cccc2c1CC(F)(F)F` [Example 25, (R)-(4-((3-(7-(((3S,4R)-3-fluoro-1-methylpiperidin-4-yl)amino)-3-(2,2,2-trifluoroethyl)benzo[b]thiophen-2-yl)prop-2-yn-1-yl)amino)-3-methoxyphenyl)(imino)(tetrahydro-2H-pyran-4-yl)-16-sulfanone] the pEC50 [1] was 7.21.
`CN1CC[C@@H](Nc2cccc3c(CC(F)(F)F)c(C#C[C@H]4Cc5cc(P(C)(C)=O)ccc5N4)sc23)[C@@H](F)C1` [Example 22, ((R)-2-((7-(((3S,4R)-3-fluoro-1-methylpiperidin-4-yl)amino)-3-(2,2,2-trifluoroethyl)benzo[b]thiophen-2-yl)ethynyl)indolin-5-yl)dimethylphosphine oxide] was tested, and the pEC50 [1] was 6.50.
`[2H]C([2H])([2H])Oc1cc(P(C)(C)=S)ccc1NCC#Cc1sc2c(N[C@@H]3CCN(C)C[C@@H]3F)cccc2c1CC(F)(F)F` [Example 47, (4-((3-(7-(((3S,4R)-3-fluoro-1-methylpiperidin-4-yl)amino)-3-(2,2,2-trifluoroethyl)benzo[b]thiophen-2-yl)prop-2-yn-1-yl)amino)-3-(methoxy-d3)phenyl)dimethylphosphine sulfide] was tested, and the pEC50 [1] was 6.74.
